We go through 13 molecules from patent US5183821A, “Method for treating leukemias using N-(2-dimethylaminoethyl)-3-amino-1,8-naphthalimide for treating leukemias and solid tumors” (priority 1991, dated 1993).

The subject of one experiment is leukemia P388. Kind of experiment: NCI studies against leukemia P388 (Appendix 1, MDA and T/C). The experiment is classed as in vivo, murine. The conditions noted are these: for response vs control in vivo at 60 mg/kg: P388, dose 60,00 mg/kg; for response vs control in vivo at 120 mg/kg: P388, dose 120,00 mg/kg; for response vs control in vivo at 240 mg/kg: P388, dose 240,00 mg/kg; for STATUS (activity against leukemia P388): at the dose of the same line of the appendix table; for MDA against leukemia P388 / minimal effective dose: minor active dose reaching T/C≥120; for minimal effective dose: P388; for response vs control in vivo at 30 mg/kg: P388, dose 30,00 mg/kg. The text has this:
On the other hand, murine transplantable leukemias are a good predictor of anti-leukemia activity in human beings (Kenis "Dose schedules and mode of administration of chemotherapeutic agents in man". Recent Results Cancer Res. 21, 54-61 (1969). Only those tests which use the survival times as an activity parameter are valid as predictors of antileukemia activity in human beings (for instance, leukemia p388 y L-1210), whilst "in vitro" tests (HeLa cells and other) are inappropriate (Llombart-Rodriguez, 1983). NCI data generated in the last years confirm the value of above assertions to compounds of general formula [drawing 1] as described in U.S. Pat. No. 4,204,063.
Experimental results from NCI studies against leukemia P388 are shown in an appendix (Appendix 1). In order to simplify the presentation of results we have extracted from these the minor active dose (MDA) against leukemia P388--for each compound. MDA is defined as the minor dose of the drug that reaches the minimal activity criteria of the NCI. For leukemia P388 this criteria on the basis of survival time is a minimal increase in survival of treated animals over a control resulting in a T/C≥120. In the following table the MDA for 14 examples are presented. In cases where none of the tested doses reached the MDA, the MDA is indicated as "NONE". The column "cytotoxic activity" has been extracted from U.S. Pat. No. 4,204,063. Data are presented in order of the highest to lowest cytotoxic activity.

Another experiment relates to HeLa cells. The conditions noted are these: cytotoxic activity in vitro, monolayer; cited from earlier work.

In brackets after ≈: the same amount, converted by molar mass.

Consider `CCN(CC)CCCN1C(=O)c2cccc3cc([N+](=O)[O-])cc(c23)C1=O` [Example 3], for which, in the experiment with leukemia P388 (Mus musculus), the response vs control in vivo at 60 mg/kg is 108%, the response vs control in vivo at 120 mg/kg turned out to be 103% and the response vs control in vivo at 240 mg/kg is 114%. Besides, in the experiment with leukemia P388, the “STATUS (activity against leukemia P388)” value is “None dose tested” and the “MDA against leukemia P388” value is given as “NONE”. Besides, the “ID50 in HeLa cells” value in the experiment with HeLa cells was 20.0 µg/mL (≈ 56.3 µM).

On to `O=C1c2cccc3cc([N+](=O)[O-])cc(c23)C(=O)N1CCN1CCOCC1` [Example 4], for which, in the experiment on leukemia P388 (Mus musculus), the response vs control in vivo at 60 mg/kg was 96%, the response vs control in vivo at 120 mg/kg stood at 96% and the response vs control in vivo at 240 mg/kg was 100%. Further, in the experiment with leukemia P388, the “STATUS (activity against leukemia P388)” value is listed as “None dose tested” and the “MDA against leukemia P388” value was “NONE”. Moreover, the “ID50 in HeLa cells” value with HeLa cells was 6.0 µg/mL (≈ 16.9 µM).

The term minimal effective dose denotes the smallest amount tested that counted as effective. A higher minimal effective dose goes with a need for much substance. Regarding `CCN(CC)CCN1C(=O)c2cccc3cc(N)cc(c23)C1=O` [Example 10], the response vs control in vivo at 1 mg turned out to be 101% in the experiment with leukemia P388 (Mus musculus, P388, dose 1,56 mg as printed) and 100% in the experiment on leukemia P388 (Mus musculus, P388, dose 1,60 mg as printed). Moreover, the response vs control in vivo at 3 mg stood at 98% with leukemia P388 (Mus musculus, P388, dose 3,12 mg as printed) and 108% in the experiment on leukemia P388 (Mus musculus, P388, dose 3,20 mg as printed). Further, the response vs control in vivo at 6 mg in the experiment with leukemia P388 (Mus musculus, P388, dose 6,25 mg as printed) amounted to 98%; with leukemia P388 (Mus musculus, P388, dose 6,50 mg as printed), 107%. In the experiment on leukemia P388 (Mus musculus, P388, dose 13,00 mg as printed), this molecule gave a response vs control in vivo at 13 mg of 121%. In addition, the response vs control in vivo at 25 mg in the experiment with leukemia P388 (Mus musculus, P388, dose 25,00 mg as printed) is 114%. For the same molecule, the response vs control in vivo at 26 mg with leukemia P388 (Mus musculus, P388, dose 26,00 mg as printed) was determined as 124%. For the same molecule, the response vs control in vivo at 50 mg in the experiment on leukemia P388 (Mus musculus, P388, dose 50,00 mg as printed) is 160%. Also, the response vs control in vivo at 100 mg with leukemia P388 (Mus musculus, P388, dose 100,00 mg as printed) was less than 100%. Also, the minimal effective dose in the experiment on leukemia P388 (Mus musculus) turned out to be 3.2 mg/kg. The “STATUS (activity against leukemia P388)” value with leukemia P388 is “T/C > 120 active”. Moreover, the “ID50 in HeLa cells” value in the experiment with HeLa cells was 3.0 µg/mL (≈ 9.63 µM).

In turn, `Nc1cc2c3c(cccc3c1)C(=O)N(CCN1CCCC1)C2=O` [Example 11] displayed a response vs control in vivo at 24 mg/kg in the experiment with leukemia P388 (Mus musculus, P388, dose 24,20 mg/kg) of 160%. Also, the response vs control in vivo at 48 mg/kg with leukemia P388 (Mus musculus, P388, dose 48,39 mg/kg) came out at 96%. In addition, the minimal effective dose in the experiment with leukemia P388 (Mus musculus) amounted to 6.5 mg/kg. The “STATUS (activity against leukemia P388)” value in the experiment on leukemia P388 is given as “T/C > 120 active”. Also, in the experiment with HeLa cells, the “ID50 in HeLa cells” value is 1.5 µg/mL (≈ 4.85 µM).

In the experiment with leukemia P388 (Mus musculus), `Nc1cc2c3c(cccc3c1)C(=O)N(CCN1CCCCC1)C2=O` [Example 12] showed a response vs control in vivo at 60 mg/kg of 108%, a response vs control in vivo at 120 mg/kg of 103% and a response vs control in vivo at 240 mg/kg of 114%. In the experiment on leukemia P388, the “STATUS (activity against leukemia P388)” value is on record as “None dose tested” and the “MDA against leukemia P388” value is recorded as “NONE”. The “ID50 in HeLa cells” value with HeLa cells is 8.0 µg/mL (≈ 24.7 µM).

Consider `Nc1cc2c3c(cccc3c1)C(=O)N(CCN1CCOCC1)C2=O` [Example 13], for which, in the experiment with leukemia P388 (Mus musculus), the response vs control in vivo at 60 mg/kg was 102%, the response vs control in vivo at 120 mg/kg worked out at 102% and the response vs control in vivo at 240 mg/kg was 109%. In the experiment on leukemia P388, the “STATUS (activity against leukemia P388)” value is recorded as “None dose tested” and the “MDA against leukemia P388” value is “NONE”. Further, the “ID50 in HeLa cells” value with HeLa cells was 10.0 µg/mL (≈ 30.7 µM).

Regarding `O=C1c2cccc3cc(O)cc(c23)C(=O)N1CCN1CCOCC1` [Example 24], in the experiment on leukemia P388 (Mus musculus), the response vs control in vivo at 30 mg/kg stood at 107%, the response vs control in vivo at 60 mg/kg turned out to be 110%, the response vs control in vivo at 120 mg/kg came out at 117% and the response vs control in vivo at 240 mg/kg stood at 127%. The molecule further came in with a minimal effective dose in the experiment on leukemia P388 (Mus musculus) of 240 mg/kg. In addition, the “STATUS (activity against leukemia P388)” value in the experiment on leukemia P388 was “T/C > 120 active”. The “ID50 in HeLa cells” value in the experiment with HeLa cells is 3.5 µg/mL (≈ 10.7 µM).

Molecule `COc1cc2c3c(cccc3c1)C(=O)N(CCN(C)C)C2=O` [Example 26] yielded a minimal effective dose in the experiment with leukemia P388 (Mus musculus) of 18.9 mg/kg. Also, the “STATUS (activity against leukemia P388)” value with leukemia P388 is “T/C > 120 active”. For the same molecule, the “ID50 in HeLa cells” value in the experiment with HeLa cells was 1.5 µg/mL (≈ 5.03 µM).

The molecule `COc1cc2c3c(cccc3c1)C(=O)N(CCN1CCCC1)C2=O` [Example 27] yielded a response vs control in vivo at 17 mg/kg in the experiment with leukemia P388 (Mus musculus, P388, dose 17,30 mg/kg) of 112%. For the same molecule, the response vs control in vivo at 34 mg/kg with leukemia P388 (Mus musculus, P388, dose 34,70 mg/kg) stood at 116%. This molecule also displayed a response vs control in vivo at 50 mg/kg with leukemia P388 (Mus musculus, P388, dose 50,00 mg/kg) of 100%. In the experiment on leukemia P388 (Mus musculus, P388, dose 69,30 mg/kg), this molecule yielded a response vs control in vivo at 69 mg/kg of 116%. The same molecule registered a response vs control in vivo at 100 mg/kg in the experiment with leukemia P388 (Mus musculus, P388, dose 100,00 mg/kg) of 101%. The molecule also returned a response vs control in vivo at 200 mg/kg in the experiment on leukemia P388 (Mus musculus, P388, dose 200,00 mg/kg) of 100%. Further, in the experiment with leukemia P388, the “STATUS (activity against leukemia P388)” value was “None dose tested” and the “MDA against leukemia P388” value is reported as “NONE”. Moreover, in the experiment with leukemia P388 (dose 138,60 mg/kg), the T/C % entry was “Toxic”. Besides, in the experiment with HeLa cells, the “ID50 in HeLa cells” value was 0.75 µg/mL (≈ 2.31 µM).

Take `CCOC(=O)Nc1cc2c3c(cccc3c1)C(=O)N(CCN(C)C)C2=O` [Example 28]: in the experiment on leukemia P388 (Mus musculus), the response vs control in vivo at 30 mg/kg came out at 123% and the minimal effective dose was determined as 30 mg/kg. Moreover, the “STATUS (activity against leukemia P388)” value in the experiment on leukemia P388 was “T/C > 120 active”. The “ID50 in HeLa cells” value in the experiment with HeLa cells was 10.0 µg/mL (≈ 28.1 µM).

In the case of `CCOC(=O)Nc1cc2c3c(cccc3c1)C(=O)N(CCN1CCCC1)C2=O` [Example 29], in the experiment with leukemia P388 (Mus musculus), the response vs control in vivo at 30 mg/kg came to 127%, the response vs control in vivo at 60 mg/kg is 131%, the response vs control in vivo at 120 mg/kg is 135% and the response vs control in vivo at 240 mg/kg was found to be 158%. Moreover, in the experiment with leukemia P388 (Mus musculus), the minimal effective dose came to 30 mg/kg. Moreover, the “STATUS (activity against leukemia P388)” value with leukemia P388 is on record as “T/C > 120 active”. Moreover, the “ID50 in HeLa cells” value in the experiment on HeLa cells was 10.0 µg/mL (≈ 26.2 µM).

The molecule `CC(=O)Nc1cc2c3c(cccc3c1)C(=O)N(CCN(C)C)C2=O` [Example 30] displayed a response vs control in vivo at 3.75 mg/kg with leukemia P388 (Mus musculus, P388, dose 3,75 mg/kg) of 137%. For the same molecule, the response vs control in vivo at 7 mg/kg with leukemia P388 (Mus musculus, P388, dose 7,50 mg/kg) stood at 144%. In the experiment with leukemia P388 (Mus musculus), this molecule gave a response vs control in vivo at 60 mg/kg of less than 100% and a minimal effective dose of 3.75 mg/kg. Besides, the “STATUS (activity against leukemia P388)” value with leukemia P388 is recorded as “T/C > 120 active”. The T/C % result with leukemia P388 (dose 120,00 mg/kg) is on record as “Toxic”. Further, the T/C % entry in the experiment with leukemia P388 (dose 240,00 mg/kg) is on record as “Toxic”. Further, in the experiment on HeLa cells, the “ID50 in HeLa cells” value is 4.0 µg/mL (≈ 12.3 µM).

In the experiment on leukemia P388 (Mus musculus), `CC(=O)Nc1cc2c3c(cccc3c1)C(=O)N(CCN1CCCC1)C2=O` [Example 31] came in with a response vs control in vivo at 30 mg/kg of 186%, a response vs control in vivo at 60 mg/kg of 184%, a response vs control in vivo at 120 mg/kg of 107% and a minimal effective dose of 30 mg/kg. Further, the “STATUS (activity against leukemia P388)” value in the experiment with leukemia P388 is “T/C > 120 active”. Besides, the “ID50 in HeLa cells” value in the experiment on HeLa cells was 5.0 µg/mL (≈ 14.2 µM).
